Laboratory results as given in publication PMC5320518, “Novel Liver-targeted conjugates of Glycogen Phosphorylase Inhibitor PSN-357 for the Treatment of Diabetes: Design, Synthesis, Pharmacokinetic and Pharmacological Evaluations” (Scientific Reports, 2017).
Read-outs that look alike come from different tables or passages of the source.

Tests used:
[1] = target: T1, rabbit muscle GPa (RMGPa) (Oryctolagus cuniculus, UniProt P00489); assay: RMGPa inhibition assay (phosphate release from glucose-1-phosphate); assay type: biochemical; details: mean ± S.D. of three determinations; NI means no inhibition
T1 sequence (P00489 2-843 limits assumed): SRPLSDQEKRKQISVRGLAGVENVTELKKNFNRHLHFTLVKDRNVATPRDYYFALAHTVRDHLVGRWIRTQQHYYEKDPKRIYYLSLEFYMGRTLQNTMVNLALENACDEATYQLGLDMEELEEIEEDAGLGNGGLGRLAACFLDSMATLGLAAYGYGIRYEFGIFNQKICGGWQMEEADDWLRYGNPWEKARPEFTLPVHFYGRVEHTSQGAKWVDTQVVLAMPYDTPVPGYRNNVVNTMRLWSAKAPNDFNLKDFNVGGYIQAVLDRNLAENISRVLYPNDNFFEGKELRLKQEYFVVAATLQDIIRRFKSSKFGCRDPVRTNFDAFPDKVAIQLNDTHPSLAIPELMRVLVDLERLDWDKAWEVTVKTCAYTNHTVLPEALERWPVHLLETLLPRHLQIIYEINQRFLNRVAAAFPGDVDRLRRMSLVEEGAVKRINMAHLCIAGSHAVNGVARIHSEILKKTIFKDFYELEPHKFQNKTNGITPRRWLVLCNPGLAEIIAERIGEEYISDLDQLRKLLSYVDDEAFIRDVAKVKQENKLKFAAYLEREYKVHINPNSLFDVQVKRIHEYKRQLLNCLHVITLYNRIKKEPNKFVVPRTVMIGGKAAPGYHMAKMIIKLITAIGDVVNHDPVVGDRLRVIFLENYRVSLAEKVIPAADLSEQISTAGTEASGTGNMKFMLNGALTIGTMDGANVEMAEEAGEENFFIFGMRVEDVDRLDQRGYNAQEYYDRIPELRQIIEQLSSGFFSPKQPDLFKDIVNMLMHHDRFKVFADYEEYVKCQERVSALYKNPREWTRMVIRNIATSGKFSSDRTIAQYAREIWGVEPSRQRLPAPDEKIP
Protocol: All the compounds were evaluated for their inhibitory activity against rabbit muscle GPa (RMGPa). The activity of RMGPa was measured through detecting the release of phosphate from glucose-1-phosphate in the direction of glycogen synthesis. CP-91149, a well-known allosteric GP inhibitor, which shares the same binding site with PSN-357, was used as the positive control and the results are summarized in Table 1[21]. […] This remarkable loss of activity was probably due to the direct steric interference by such bulky substituent of cholic acid group. […] The results is consistent with the SARs of PSN-357 that the hydroxyl of piperidine is not an essential group for the GP inhibitory activity that could be modified slightly.
The inhibitory activity of the test compounds against rabbit muscle glycogen phosphorylase a (GPa) was monitored using microplate reader (BIO-RAD) based on the published method. In brief, GPa activity was measured in the direction of glycogen synthesis by the release of phosphate from glucose-1-phosphate. Each test compound was dissolved in DMSO and diluted at different concentrations for IC50 determination. The enzyme was added into 100 μL of buffer containing 50 mM Hepes (pH = 7.2), 100 mM KCl, 2.5 mM MgCl2, 0.5 mM glucose-1-phosphate, 1 mg/mL glycogen and the test compound in 96-well microplates (Costar). After the addition of 150 μL of 1 M HCl containing 10 mg/mL ammonium molybdate and 0.38 mg/mL malachite green, reactions were run at 22 °C for 25 min, and then the phosphate absorbance was measured at 655 nm. The IC50 values were estimated by fitting the inhibition data to a dose-dependent curve using a logistic derivative equation.

isolated rat hepatocytes = assay: Glycogenolysis inhibition in isolated rat hepatocytes; assay type: cell-based; details: mean ± S.D. of three, NI means no inhibition
From the text: To evaluate the effects of all compounds in cells, the glycogenolysis assays were established in both rat and human liver cells based on the published method. […] The inhibitory activities of the derivatives of PSN-357 (e.g. 25–28) were also explored. It is not surprising that the derivatives still retained micromolar inhibitory activities. Introduction of steric bulks to the hydroxyl group (e.g. 33, 40, 42, 48) led to a complete loss of activity. Data analysis indicated no clear SAR for the substitutents in the cell-based assays.
The inhibition of hepatic glycogenolysis was monitored by the measurement of liver glycogen, which was done quantitatively by the anthrone reagent (Sigma) colorimetric method based on the published method. Isolated rat hepatocytes or HepG2 cells (Sigma) were treated with the test compound or DMSO solvent (final concentration, 0.10%), followed by 60-min incubation with 0.3 nM glucagon (GGN). Assays were terminated by centrifugation, and cells were digested with 30% KOH followed by glycogen determination. The IC50 values were estimated by fitting the inhibition data to a dose-dependent curve using a logistic derivative equation.

[2] = Stability in simulated gastric fluid (SGF); assay type: in vitro ADME; details: SGF pH 1.21 with pepsin, 2 μM, 37 °C, 24 h incubation
Protocol: (§1) All the conjugates were tested for their chemical and metabolic stability in multiple assays, including simulated gastric fluid (SGF), simulated interstinal fluid (SIF), mouse plasma, and mouse liver microsome (MLM).
(§2) For the stability in SGF (Fig. 8) and SIF (Fig. 9), the conjugates could be divided into three groups: (1) stable conjugates 2, 6 and 9. […] The two conjugates were degraded within 6 h and 1 h in SGF and SIF, respectively, with alomost no conjugates at the end of the 24 h incubation in both SGF and SIF; (3) complicated conjugates 3, 4, 5 and 8.
(§3) The simulated gastrointestinal fluids were prepared according to USP specifications. For SGF, NaCl (0.12 g) and pepsin (0.18 g, from porcine stomach mucosa) was dissolved in HCl (0.42 mL) and sufficient H2O was added to make 60 mL. The pH of the test solution was determined as 1.21 by pH meter. For the SIF, KH2PO4 (0.408 g) and pancreatin (0.6 g, from porcine pancreas) was dissolved in H2O (60 mL). The pH of the test solution was determined as 6.79 by pH meter. Each test compound was dissolved in DMSO and diluted to a final concentration of 2 μM in SIF and SGF. The final concentrations of DMSO and CH3CN in the incubation mixture were 0.2% and 0.45%. Aliquots of these solutions were pipetted into glass tubes, and placed in a 37 °C shaking water bath. Test samples at corresponding time point (1, 2, 6, 24 h) were removed at the end of incubation time and immediately mixed with 800 μL of cold acetonitrile containing 500 ng/mL tolbutamide (internal standard). Samples were subjected to centrifuge at 4000 rpm, 4 °C for 20 min. Aliquots 60 μL of supernatant was combined with 120 μL water for LC-MS/MS analysis.

[3] = Stability in simulated intestinal fluid (SIF); assay type: in vitro ADME; details: SIF pH 6.79 with pancreatin, 2 μM, 37 °C, 24 h incubation
Protocol: as §1, §2, §3

C[C@H](CCC(=O)N[C@@H](CC(=O)O)C(=O)OC1CCN(C(=O)[C@H](Cc2ccc(F)cc2)NC(=O)c2cc3cc(Cl)ncc3[nH]2)CC1)[C@H]1CC[C@H]2[C@@H]3[C@H](O)C[C@@H]4C[C@H](O)CC[C@]4(C)[C@H]3C[C@H](O)[C@]12C [Conjugate 6]
IC50 [1]: 31.2 ± 11.1 µM
IC50 (isolated rat hepatocytes; Rattus norvegicus, Hepatocyte, 1 h, read-out: IC50 (glycogenolysis inhibition, rat hepatocytes), isolated rat hepatocytes, 60-min incubation with 0.3 nM glucagon): 13.4 µM
IC50 (isolated rat hepatocytes; read-out: IC50 (glycogenolysis inhibition, rat hepatocytes), isolated rat hepatocytes, 60-min incubation with 0.3 nM glucagon): 13.4 ± 2.55 µM
stability in SGF (in words) [2]: stable
stability in SIF (in words) [3]: stable up to 24 h

O=C(N[C@@H](Cc1ccc(F)cc1)C(=O)N1CCC(O)CC1)c1cc2cc(Cl)ncc2[nH]1 [PSN-357]
IC50 [1]: 0.42 ± 0.01 µM
IC50 (isolated rat hepatocytes; Hepatocyte, 1 h, isolated rat hepatocytes, 60-min incubation with 0.3 nM glucagon, read-out: IC50 (glycogenolysis inhibition, rat hepatocytes)): 10.7 ± 2.73 µM
